1 compound from patent publication US10435371B2, “Multifunctional aminoquinoline therapeutic agent” (LOHOCLA RESEARCH CORPORATION, priority 2014, dated 2019) can be followed below.

Experiment [1] addresses Serotonin Transporter (Homo sapiens, UniProt P31645). As to the kind of experiment: PDSP radioligand binding.
Experiment [2] concerns the target 5-HT2B (Serotonin Rs) (Homo sapiens, UniProt P41595). The experiment can be described thus: PDSP radioligand binding.
Experiment [3] deals with delta opiate receptor (Homo sapiens, UniProt P41143). The experiment can be described thus: cAMP accumulation, HeLa cells transfected with D1 receptor, DOR and AC5. Format: cell-based. Also noted: expressed in transfected cells. The following applies: HeLa cells, AC5. (In general: Changes in cAMP serve as a functional read-out for many G protein-coupled receptors.)
Sequence of delta opiate receptor (P41143 whole entry): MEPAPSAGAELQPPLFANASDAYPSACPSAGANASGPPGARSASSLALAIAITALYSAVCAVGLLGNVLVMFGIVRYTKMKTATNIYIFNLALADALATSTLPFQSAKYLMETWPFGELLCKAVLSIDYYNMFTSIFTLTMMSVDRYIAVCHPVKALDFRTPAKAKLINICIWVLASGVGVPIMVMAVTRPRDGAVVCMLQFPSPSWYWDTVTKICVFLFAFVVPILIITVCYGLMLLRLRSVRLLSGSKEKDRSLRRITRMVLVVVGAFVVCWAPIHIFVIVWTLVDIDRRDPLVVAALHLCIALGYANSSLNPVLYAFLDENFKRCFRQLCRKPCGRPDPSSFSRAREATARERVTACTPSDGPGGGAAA
Experiment [4] deals with rats treated with cisplatin. The experiment can be described thus: Prevention of cisplatin-induced neuropathic pain. The format is in vivo, rat. The following applies: 50 mg/kg intragastric twice daily for 14 days starting 1 h after first cisplatin injection; FIG. 14. The protocol: This example illustrates that treatment of animals with DCUKA following insult, but prior to development of neuropathic pain, can prevent the development of the pain. Rats were treated with cisplatin or CFA, and mechanical pain threshold was measured, as described under Example 5.
Prevention of Cisplatin-Induced Neuropathic Pain by DCUKA. One day after baseline measurement of the mechanical pain threshold, rats were injected i.p. with cisplatin. Cisplatin injections were again given on days 4, 8, and 12. Starting one hour after the first cisplatin injection, rats were given 50 mg/kg DCUKA or vehicle via intragastric gavage twice daily for 14 days. After the last treatment (day 15) the mechanical pain threshold was again tested. The pain threshold was then tested once weekly for 4 weeks, with no further treatments.

The target in experiment [5] is mGluR5 (Metabotropic Glutamate Rs) (Homo sapiens, UniProt P41594). The experiment can be described thus: PDSP radioligand binding.
Sequence of mGluR5 (Metabotropic Glutamate Rs) (P41594 21-1212): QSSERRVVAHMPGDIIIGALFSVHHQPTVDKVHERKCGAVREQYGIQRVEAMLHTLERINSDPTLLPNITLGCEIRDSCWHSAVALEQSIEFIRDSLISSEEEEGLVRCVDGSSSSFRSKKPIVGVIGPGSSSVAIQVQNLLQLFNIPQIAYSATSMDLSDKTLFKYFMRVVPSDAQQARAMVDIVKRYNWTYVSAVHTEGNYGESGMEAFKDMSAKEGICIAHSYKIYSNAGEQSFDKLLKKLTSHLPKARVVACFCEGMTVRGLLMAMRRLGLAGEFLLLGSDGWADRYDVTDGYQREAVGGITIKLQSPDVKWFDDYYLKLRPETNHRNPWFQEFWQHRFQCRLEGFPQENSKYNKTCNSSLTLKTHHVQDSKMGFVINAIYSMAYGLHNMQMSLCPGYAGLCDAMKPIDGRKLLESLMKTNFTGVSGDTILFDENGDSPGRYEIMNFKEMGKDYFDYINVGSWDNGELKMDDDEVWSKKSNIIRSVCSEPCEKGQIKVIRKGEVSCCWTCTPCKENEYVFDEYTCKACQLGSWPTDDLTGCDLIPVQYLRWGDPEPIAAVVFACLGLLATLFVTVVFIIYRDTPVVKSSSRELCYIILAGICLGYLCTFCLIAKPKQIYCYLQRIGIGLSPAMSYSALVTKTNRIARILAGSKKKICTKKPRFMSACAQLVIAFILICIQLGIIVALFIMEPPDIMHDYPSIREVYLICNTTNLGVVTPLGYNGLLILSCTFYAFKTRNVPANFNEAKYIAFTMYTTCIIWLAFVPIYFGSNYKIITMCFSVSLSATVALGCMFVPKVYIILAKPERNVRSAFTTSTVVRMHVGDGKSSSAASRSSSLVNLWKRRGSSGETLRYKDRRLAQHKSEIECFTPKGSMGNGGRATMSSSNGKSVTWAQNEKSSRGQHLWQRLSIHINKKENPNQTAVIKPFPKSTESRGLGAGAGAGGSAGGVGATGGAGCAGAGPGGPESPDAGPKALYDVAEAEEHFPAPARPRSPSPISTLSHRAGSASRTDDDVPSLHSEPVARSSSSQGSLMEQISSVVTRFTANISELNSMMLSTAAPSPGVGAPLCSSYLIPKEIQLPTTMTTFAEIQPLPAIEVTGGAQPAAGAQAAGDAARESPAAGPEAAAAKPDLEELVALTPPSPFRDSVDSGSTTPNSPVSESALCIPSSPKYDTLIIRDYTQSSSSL
For experiment [6], the target named is 5-HT1B (Serotonin Rs) (Homo sapiens, UniProt P28222). As to the kind of experiment: PDSP radioligand binding.
In experiment [7] the target is M1 (Muscarinic Cholinergic Rs) (Homo sapiens, UniProt P11229). As to the kind of experiment: PDSP radioligand binding.
Sequence of M1 (Muscarinic Cholinergic Rs) (P11229 whole entry): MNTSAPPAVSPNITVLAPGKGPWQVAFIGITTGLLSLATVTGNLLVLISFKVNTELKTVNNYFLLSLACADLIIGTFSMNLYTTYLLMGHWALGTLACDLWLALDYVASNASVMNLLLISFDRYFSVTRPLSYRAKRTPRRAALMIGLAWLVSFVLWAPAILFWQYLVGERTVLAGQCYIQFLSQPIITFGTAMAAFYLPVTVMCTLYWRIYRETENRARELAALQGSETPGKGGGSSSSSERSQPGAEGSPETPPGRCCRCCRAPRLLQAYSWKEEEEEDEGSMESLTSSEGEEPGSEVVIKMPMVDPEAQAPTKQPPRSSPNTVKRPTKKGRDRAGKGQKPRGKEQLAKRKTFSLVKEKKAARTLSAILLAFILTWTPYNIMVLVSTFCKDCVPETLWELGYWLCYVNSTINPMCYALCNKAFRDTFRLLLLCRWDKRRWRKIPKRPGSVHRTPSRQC
Experiment [8] has as its target GABA site, GABA-A Receptor. As to the kind of experiment: PDSP radioligand displacement, [^3H]Muscimol. The arrangement: species or system rat. The following applies: read-out: Binding constant Ki, GABA site, GABA-A Receptor. A general note: In a radioligand displacement assay an active substance lowers the binding of a labelled ligand.
The target in experiment [9] is 5-HT3 (Serotonin Rs) (Homo sapiens, UniProt P46098). As to the kind of experiment: PDSP radioligand binding.
Sequence of 5-HT3 (Serotonin Rs) (P46098 24-478): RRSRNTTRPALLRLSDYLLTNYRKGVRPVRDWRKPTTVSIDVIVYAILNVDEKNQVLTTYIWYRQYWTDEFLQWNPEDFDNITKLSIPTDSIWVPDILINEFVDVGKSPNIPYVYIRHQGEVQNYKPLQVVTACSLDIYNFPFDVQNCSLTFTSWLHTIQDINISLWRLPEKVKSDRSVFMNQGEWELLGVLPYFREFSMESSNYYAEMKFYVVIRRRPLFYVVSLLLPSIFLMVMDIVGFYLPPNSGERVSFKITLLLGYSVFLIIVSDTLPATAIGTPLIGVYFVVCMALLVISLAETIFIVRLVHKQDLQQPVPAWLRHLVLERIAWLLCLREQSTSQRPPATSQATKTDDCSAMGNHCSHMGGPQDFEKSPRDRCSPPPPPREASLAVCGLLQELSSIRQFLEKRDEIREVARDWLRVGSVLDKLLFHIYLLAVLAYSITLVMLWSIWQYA
Experiment [10] addresses BDZ site, GABA-A Receptor. As to the kind of experiment: PDSP radioligand displacement, [^3H]Flunitrazepam. Also noted: species or system rat. The following applies: read-out: Binding constant Ki, BDZ site, GABA-A Receptor.
The target of experiment [11] is 5-HT1A (Serotonin Rs) (Homo sapiens, UniProt P08908). As to the kind of experiment: PDSP radioligand binding.
Experiment [12] deals with T1, GABA-A receptors (α1, β2, γ2s subunits) (UniProt P18508+P47870+P62813).
T1 construct: expressed in transfected cells; host or cells: Xenopus laevis oocytes injected with capped cRNAs (α1:β2:γ2s 2:2:20 ng)
T1 sequence (P62813 28-455): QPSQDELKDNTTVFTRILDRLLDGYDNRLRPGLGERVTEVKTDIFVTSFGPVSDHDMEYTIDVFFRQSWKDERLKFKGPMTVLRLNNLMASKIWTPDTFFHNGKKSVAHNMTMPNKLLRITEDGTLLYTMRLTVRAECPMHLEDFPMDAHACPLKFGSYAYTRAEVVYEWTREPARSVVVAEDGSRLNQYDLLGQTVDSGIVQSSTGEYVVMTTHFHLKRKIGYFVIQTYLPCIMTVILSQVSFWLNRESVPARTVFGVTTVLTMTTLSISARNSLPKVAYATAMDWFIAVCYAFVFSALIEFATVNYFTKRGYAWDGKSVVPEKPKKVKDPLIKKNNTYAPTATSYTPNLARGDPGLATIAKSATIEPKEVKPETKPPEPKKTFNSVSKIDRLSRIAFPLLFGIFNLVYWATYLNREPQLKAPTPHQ
T1 sequence (P47870 26-474 isoform P47870-1 limits assumed): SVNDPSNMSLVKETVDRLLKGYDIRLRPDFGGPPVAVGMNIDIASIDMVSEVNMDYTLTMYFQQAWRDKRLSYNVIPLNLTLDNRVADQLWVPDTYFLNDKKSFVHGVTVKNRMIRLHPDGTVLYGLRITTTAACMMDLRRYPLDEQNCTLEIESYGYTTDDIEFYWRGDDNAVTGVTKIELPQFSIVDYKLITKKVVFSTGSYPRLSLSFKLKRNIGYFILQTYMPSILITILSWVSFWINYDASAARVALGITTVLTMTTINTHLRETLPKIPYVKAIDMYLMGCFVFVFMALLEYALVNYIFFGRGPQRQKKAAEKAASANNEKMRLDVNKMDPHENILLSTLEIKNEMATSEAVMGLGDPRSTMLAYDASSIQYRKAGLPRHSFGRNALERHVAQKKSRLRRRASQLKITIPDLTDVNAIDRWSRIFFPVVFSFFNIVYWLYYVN
T1 sequence (P18508 39-466): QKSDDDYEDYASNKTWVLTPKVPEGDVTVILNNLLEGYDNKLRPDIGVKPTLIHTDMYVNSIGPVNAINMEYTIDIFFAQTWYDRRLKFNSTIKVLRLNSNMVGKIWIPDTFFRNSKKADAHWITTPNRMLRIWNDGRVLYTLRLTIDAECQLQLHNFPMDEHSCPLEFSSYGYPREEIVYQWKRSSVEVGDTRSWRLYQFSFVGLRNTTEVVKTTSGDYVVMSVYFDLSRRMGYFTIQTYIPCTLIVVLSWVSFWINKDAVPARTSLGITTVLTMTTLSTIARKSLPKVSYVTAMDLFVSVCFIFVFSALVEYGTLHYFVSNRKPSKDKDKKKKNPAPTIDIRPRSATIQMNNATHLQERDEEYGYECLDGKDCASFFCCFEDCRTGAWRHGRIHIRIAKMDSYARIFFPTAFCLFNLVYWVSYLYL
As to the kind of experiment: Two-electrode voltage clamp, GABA-A receptors expressed in Xenopus oocytes. Format: cell-based, rat α1 and γ2s, human β2. The following applies: FIG. 4A. The procedure: Xenopus laevis frogs were obtained from Nasco (Fort Atkinson, Wis., USA). The complementary DNAs encoding the GABAA subunits rat α1 and γ2s and human β2 were provided by Dr. M. H. Akabas and Dr. Paul Whiting, respectively. The in vitro transcription of α1, β2, and γ2s subunits was performed using mMessage mMachine® (Life Technologies, Grand Island, N.Y.). After isolation of Xenopus laevis oocytes, they were injected with capped complementary RNAs encoding α1, β2, and γ2s subunits in a ratio 2:2:20 ng. The injected oocytes were incubated at 15° C. in sterilized Barth's solution [MBS; composition: 88 mM NaCl, 1 mM KCl, 10 mM HEPES, 0.82 mM MgSO4, 2.4 mM NaHCO3, 0.91 mM CaCl2), and 0.33 mM Ca(NO3)2, pH 7.5] for 3-5 days before recording. All surgery was performed according to an approved institutional protocol. The responses of GABAARs expressed in oocytes were studied through two-electrode voltage clamp (Oocyte Clamp OC-725C, Warner Instruments, Hamden, Conn.), recording through a POWERLAB 4/30 system (ADInstruments, Colorado Springs, Colo.). The oocyte was placed in a chamber perfused with MBS, and voltage-clamped at −70 mV.
On the technique in general: Two-electrode voltage clamp holds a large cell at a set potential and records current.

In experiment [13] the test system is rats treated with cisplatin. The experiment can be described thus: Reversal of cisplatin-induced neuropathic pain (von Frey mechanical pain threshold). Format: in vivo, rat. The following applies: 50 mg/kg oral.
Experiment [14] concerns the target EP2 (Prostaglandin Rs) (Homo sapiens, UniProt P43116). The experiment can be described thus: PDSP radioligand binding. The following applies: Table 3, the 6th table r12c1; read-out: Ki, EP2 (lack of affinity).

The structures appear in SMILES notation.

Sequence of EP2 (Prostaglandin Rs) (P43116 whole entry): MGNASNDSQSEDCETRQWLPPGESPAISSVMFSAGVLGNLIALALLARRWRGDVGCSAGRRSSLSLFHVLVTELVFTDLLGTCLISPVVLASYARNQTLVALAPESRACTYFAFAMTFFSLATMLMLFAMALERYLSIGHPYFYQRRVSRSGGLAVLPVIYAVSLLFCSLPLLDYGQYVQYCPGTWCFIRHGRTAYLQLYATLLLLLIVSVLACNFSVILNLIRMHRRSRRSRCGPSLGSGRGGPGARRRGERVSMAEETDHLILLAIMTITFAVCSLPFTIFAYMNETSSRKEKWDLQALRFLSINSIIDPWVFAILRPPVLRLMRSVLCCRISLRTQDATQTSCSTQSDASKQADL
Sequence of 5-HT2B (Serotonin Rs) (P41595 whole entry): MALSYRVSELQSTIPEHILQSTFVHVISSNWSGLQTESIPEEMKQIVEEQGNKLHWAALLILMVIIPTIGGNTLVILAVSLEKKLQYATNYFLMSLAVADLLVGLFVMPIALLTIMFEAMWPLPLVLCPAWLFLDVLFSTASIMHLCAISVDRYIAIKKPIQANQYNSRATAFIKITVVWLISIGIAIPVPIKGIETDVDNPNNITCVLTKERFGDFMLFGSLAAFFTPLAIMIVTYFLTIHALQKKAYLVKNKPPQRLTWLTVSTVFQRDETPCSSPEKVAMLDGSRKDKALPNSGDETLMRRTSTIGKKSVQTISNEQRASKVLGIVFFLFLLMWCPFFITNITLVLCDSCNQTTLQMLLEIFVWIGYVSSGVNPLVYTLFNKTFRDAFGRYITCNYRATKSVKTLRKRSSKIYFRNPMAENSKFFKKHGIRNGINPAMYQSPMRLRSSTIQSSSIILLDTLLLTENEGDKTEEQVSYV

The term Ki denotes a dissociation constant, usually derived from enzyme kinetics or from competition with a known ligand. For orientation: IC50 means the concentration that gives 50% inhibition. With `O=C(O)c1cc(NC(=O)N(c2ccccc2)c2ccccc2)c2c(Cl)cc(Cl)cc2n1` [DCUKA, 5,7-dichloro-4-(3,3-diphenylureido)quinoline-2-carboxylic acid], the Ki is more than 10 µM in experiment [1]; more than 10 µM in [2]; more than 10 µM in experiment [5]; more than 10 µM in [6]; more than 10 µM in experiment [7]; 6.6 ± 1.8 µM in experiment [8]. In addition, the inhibition constant (Ki) in experiment [9], in [10], in experiment [11] and in experiment [14] was more than 10 µM in each case. The “Character of action at the delta opiate receptor” value in experiment [3] is given as “agonist”. In [3] (D1, DOR, 10 μM DA, DCUKA 0.25-20 μM, regression analysis, FIG. 3, read-out: IC50 for inhibition of cAMP accumulation), the IC50 came to 3.9 ± 0.47 µM. The “Mechanical pain threshold (paw withdrawal threshold) over days” value in experiment [4] is “no statistically significant decrease of pain threshold compared to the pre-cisplatin baseline”. Further, the “Character of action at the GABA-A receptor” value in experiment [12] is given as “positive allosteric modulators (PAM)”. In experiment [12] (co-applied with EC10 GABA), the GABA-induced chloride currents result was “significantly enhanced GABA-induced currents”. For the same compound, in experiment [12] (without GABA), the “Chloride currents, compound alone” value is “no effect on chloride currents by themselves”. For the same compound, the “Mechanical pain threshold, ratio to baseline” value in experiment [13] (cisplatin i.p. 7 mg/kg total, day 14, 1 and 2 hours, FIG. 6) is on record as “significantly reversed the drop in mechanical pain threshold”. For the same compound, the “Mechanical pain threshold, ratio to pre-cisplatin baseline” value in [13] (rats, 1 hour after dosing, six experiments combined, FIG. 5) is reported as “increases the mechanical pain threshold to control levels”.
